# Active and inactive are the calls of the source. How the calls were made is not given here.
# System: rodent lifetime carcinogenesis bioassay, tumor incidence TD50
# Assay: chronic cancer bioassays in animals – CPDB, compiled studies (AID 1745844)
# [1] = mouse, strain B6AKF1, females, oral dosing, site: any site (literature study), lesion: several types, types named in the paper, dosed 76 weeks, study length 76 weeks
# [2] = mouse, strain B6AKF1, females, oral dosing, site: lung, lesion: adenoma, dosed 76 weeks, study length 76 weeks
# [3] = mouse, strain B6AKF1, males, oral dosing, site: any site (literature study), lesion: several types, types named in the paper, dosed 76 weeks, study length 76 weeks
# [4] = mouse, strain B6AKF1, males, oral dosing, site: liver, lesion: hepatoma, dosed 76 weeks, study length 76 weeks
# [5] = mouse, strain B6C3F1, females, oral dosing, site: any site (literature study), lesion: several types, types named in the paper, dosed 76 weeks, study length 76 weeks
# [6] = mouse, strain B6C3F1, females, oral dosing, site: lung, lesion: adenoma, dosed 76 weeks, study length 76 weeks
# [7] = mouse, strain B6C3F1, males, oral dosing, site: any site (literature study), lesion: several types, types named in the paper, dosed 76 weeks, study length 76 weeks
# [8] = mouse, strain B6C3F1, males, oral dosing, site: liver, lesion: hepatoma, dosed 76 weeks, study length 76 weeks
# [9] = mouse, strain B6C3F1, males, oral dosing, site: lung, lesion: adenoma, dosed 76 weeks, study length 76 weeks
structure (smiles),measurement,setting,value
CCN(CC)C(=S)S[Te](SC(=S)N(CC)CC)(SC(=S)N(CC)CC)SC(=S)N(CC)CC,TD50,[1],26.7 mg/kg/day
same,TD50,[2],28.2 mg/kg/day
same,TD50,[3],31.2 mg/kg/day
same,TD50,[4],55.5 mg/kg/day
same,TD50,"mouse, strain B6C3F1, females, in feed, site: any site (literature study), lesion: several types, types named in the paper, dosed 106 weeks, study length 106 weeks",1030 mg/kg/day (inactive)
same,TD50,"mouse, strain B6C3F1, females, in feed, site: liver, lesion: hepatocellular adenoma + hepatocellular carcinoma + neoplastic nodule, dosed 106 weeks, study length 106 weeks",2270 mg/kg/day
same,TD50,"mouse, strain B6C3F1, females, in feed, site: lung, lesion: alveolar/bronchiolar adenoma + alveolar/bronchiolar carcinoma, dosed 106 weeks, study length 106 weeks",3400 mg/kg/day
same,TD50,[5],63.5 mg/kg/day
same,TD50,[6],131 mg/kg/day
same,TD50,"mouse, strain B6C3F1, males, in feed, site: any site (literature study), lesion: several types, types named in the paper, dosed 106 weeks, study length 106 weeks",902 mg/kg/day
same,TD50,"mouse, strain B6C3F1, males, in feed, site: eye, lesion: adenoma, NOS, dosed 106 weeks, study length 106 weeks",201 mg/kg/day
same,TD50,"mouse, strain B6C3F1, males, in feed, site: lung, lesion: alveolar/bronchiolar adenoma + alveolar/bronchiolar carcinoma, dosed 106 weeks, study length 106 weeks",228 mg/kg/day
same,TD50,"mouse, strain B6C3F1, males, in feed, site: lung, lesion: alveolar/bronchiolar carcinoma, dosed 106 weeks, study length 106 weeks",260 mg/kg/day
same,TD50,[7],8.41 mg/kg/day
same,TD50,[8],24.2 mg/kg/day
same,TD50,[9],108 mg/kg/day
same,TD50,"mouse, strain B6C3F1, males, oral dosing, site: lung, lesion: carcinoma, dosed 76 weeks, study length 76 weeks",108 mg/kg/day
same,TD50,"mouse, strain B6C3F1, males, oral dosing, site: lung, lesion: several types, types named in the paper, dosed 76 weeks, study length 76 weeks",52.1 mg/kg/day
same,TD50,"rat, strain Fischer 344, females, in feed, site: liver, lesion: hepatocellular adenoma + hepatocellular carcinoma + neoplastic nodule, dosed 105 weeks, study length 105 weeks",650 mg/kg/day
same,TD50,"rat, strain Fischer 344, females, in feed, site: pituitary gland, lesion: adenoma, NOS, dosed 105 weeks, study length 105 weeks",12.3 mg/kg/day (inactive)
same,TD50,"rat, strain Fischer 344, males, in feed, site: all sites, lesion: mesothelioma, NOS, dosed 105 weeks, study length 105 weeks",77.6 mg/kg/day
same,TD50,"rat, strain Fischer 344, males, in feed, site: body cavities, lesion: mesothelioma, NOS, dosed 105 weeks, study length 105 weeks",181 mg/kg/day
ON=C1CCCC1,TD50,"rat, strain Fischer 344, males, by gavage, site: liver, lesion: hepatocellular carcinoma, dosed 50 weeks, study length 83 weeks",70.7 mg/kg/day
same,TD50,"rat, strain Fischer 344, males, by gavage, site: liver, lesion: several types, types named in the paper, dosed 50 weeks, study length 83 weeks",40.9 mg/kg/day
CC1(C)O[C@@H]2C[C@H]3[C@@H]4CCC5=CC(=O)C=C[C@]5(C)[C@@]4(F)[C@@H](O)C[C@]3(C)[C@]2(C(=O)CO)O1,TD50,"rat, strain Charles River CD (Sprague-Dawley), males, in drinking water, site: liver, lesion: hepatocellular adenoma, dosed 104 weeks, study length 104 weeks",0.0917 mg/kg/day
same,TD50,"rat, strain Charles River CD (Sprague-Dawley), males, in drinking water, site: liver, lesion: hepatocellular carcinoma, dosed 104 weeks, study length 104 weeks",0.141 mg/kg/day
same,TD50,"rat, strain Charles River CD (Sprague-Dawley), males, in drinking water, site: liver, lesion: several types, types named in the paper, dosed 104 weeks, study length 104 weeks",0.053 mg/kg/day
[Cl][Hg][Cl],TD50,"mouse, strain B6C3F1, females, by gavage, site: any site (literature study), lesion: several types, types named in the paper, dosed 103 weeks, study length 104 weeks",5.83 mg/kg/day (inactive)
same,TD50,"mouse, strain B6C3F1, females, by gavage, site: lung, lesion: alveolar/bronchiolar adenoma + alveolar/bronchiolar carcinoma, dosed 103 weeks, study length 104 weeks",40.8 mg/kg/day
same,TD50,"mouse, strain B6C3F1, males, by gavage, site: kidney, lesion: tubular-cell adenocarcinoma, dosed 103 weeks, study length 104 weeks",240 mg/kg/day
same,TD50,"mouse, strain B6C3F1, males, by gavage, site: kidney, lesion: tubule adenoma + tubular-cell adenocarcinoma, dosed 103 weeks, study length 104 weeks",81.6 mg/kg/day
same,TD50,"mouse, strain B6C3F1, males, by gavage, site: kidney, lesion: tubule adenoma, dosed 103 weeks, study length 104 weeks",125 mg/kg/day
same,TD50,"mouse, strain Charles River CD1, females, in drinking water, site: all sites, lesion: lymphoma and leukemia, combined, dosed 118 weeks, study length 118 weeks",3.58 mg/kg/day (inactive)
same,TD50,"mouse, strain Charles River CD1, females, in drinking water, site: any site (literature study), lesion: malignant tumor, dosed 118 weeks, study length 118 weeks",5.55 mg/kg/day (inactive)
same,TD50,"mouse, strain Charles River CD1, females, in drinking water, site: any site (literature study), lesion: several types, types named in the paper, dosed 118 weeks, study length 118 weeks",2.42 mg/kg/day (inactive)
same,carcinogen call,"mouse, strain Charles River CD1, females, in drinking water, site: lung, lesion: one or several types, types not named, dosed 118 weeks, study length 118 weeks",negative (inactive)
same,carcinogen call,"mouse, strain Charles River CD1, males, in drinking water, site: any site (literature study), lesion: malignant tumor, dosed 119 weeks, study length 119 weeks",negative (inactive)
same,TD50,"mouse, strain Charles River CD1, males, in drinking water, site: any site (literature study), lesion: several types, types named in the paper, dosed 119 weeks, study length 119 weeks",3.2 mg/kg/day (inactive)
same,TD50,"mouse, strain Charles River CD1, males, in drinking water, site: lung, lesion: one or several types, types not named, dosed 119 weeks, study length 119 weeks",11.2 mg/kg/day (inactive)
same,TD50,"rat, strain Fischer 344, females, by gavage, site: forestomach, lesion: squamous-cell papilloma, dosed 103 weeks, study length 104 weeks",51.8 mg/kg/day
same,TD50,"rat, strain Fischer 344, females, by gavage, site: liver, lesion: hepatocellular adenoma + hepatocellular carcinoma + neoplastic nodule, dosed 103 weeks, study length 104 weeks",105 mg/kg/day
same,TD50,"rat, strain Fischer 344, males, by gavage, site: adrenal medulla, lesion: pheochromocytoma benign, bilateral + pheochromocytoma, benign, dosed 103 weeks, study length 104 weeks",1.56 mg/kg/day
same,TD50,"rat, strain Fischer 344, males, by gavage, site: adrenal medulla, lesion: pheochromocytoma benign, bilateral + pheochromocytoma, complex + pheochromocytoma, malignant + pheochromocytoma malignant, bil, dosed 103 weeks, study length 104 weeks",1.6 mg/kg/day
same,TD50,"rat, strain Fischer 344, males, by gavage, site: any site (literature study), lesion: several types, types named in the paper, dosed 103 weeks, study length 104 weeks",1.04 mg/kg/day
same,TD50,"rat, strain Fischer 344, males, by gavage, site: forestomach, lesion: squamous-cell papilloma, dosed 103 weeks, study length 104 weeks",3.12 mg/kg/day
same,TD50,"rat, strain Fischer 344, males, by gavage, site: liver, lesion: hepatocellular adenoma + hepatocellular carcinoma + neoplastic nodule, dosed 103 weeks, study length 104 weeks",10.3 mg/kg/day
same,TD50,"rat, strain Fischer 344, males, by gavage, site: testis, lesion: interstitial-cell adenoma, bilateral + interstitial-cell adenoma, dosed 103 weeks, study length 104 weeks",0.825 mg/kg/day
same,TD50,"rat, strain Fischer 344, males, by gavage, site: thyroid gland, lesion: follicular-cell adenoma + follicular-cell carcinoma, dosed 103 weeks, study length 104 weeks",5.25 mg/kg/day
same,TD50,"rat, strain Fischer 344, males, by gavage, site: thyroid gland, lesion: follicular-cell adenoma, dosed 103 weeks, study length 104 weeks",5.98 mg/kg/day
same,TD50,"rat, strain Fischer 344, males, by gavage, site: thyroid gland, lesion: follicular-cell carcinoma, dosed 103 weeks, study length 104 weeks",7.32 mg/kg/day
CC[C@H]1OC(=O)C[C@@H](O)[C@H](C)[C@@H](O[C@@H]2O[C@H](C)[C@@H](O[C@H]3C[C@@](C)(O)[C@@H](O)[C@H](C)O3)[C@H](N(C)C)[C@H]2O)[C@@H](CC=O)C[C@@H](C)C(=O)/C=C/C(C)=C/C1CO[C@@H]1O[C@H](C)[C@@H](O)[C@@H](OC)[C@H]1OC (stereo partly specified),carcinogen call,"mouse, strain C57BL/6, females, in feed, site: liver, lesion: one or several types, types not named, dosed 52 weeks, study length 52 weeks",negative (inactive)
same,carcinogen call,"mouse, strain C57BL/6, females, in feed, site: lung, lesion: one or several types, types not named, dosed 52 weeks, study length 52 weeks",negative (inactive)
same,carcinogen call,"mouse, strain C57BL/6, males, in feed, site: liver, lesion: one or several types, types not named, dosed 52 weeks, study length 52 weeks",negative (inactive)
same,carcinogen call,"mouse, strain C57BL/6, males, in feed, site: lung, lesion: one or several types, types not named, dosed 52 weeks, study length 52 weeks",negative (inactive)
CCN=[N+](C)[O-],TD50,"rat, strain Fischer 344, males, in drinking water, site: kidney, lesion: several types, types named in the paper, dosed 30 weeks, study length 95 weeks",123 mg/kg/day
same,TD50,"rat, strain Fischer 344, males, in drinking water, site: liver, lesion: hemangiosarcoma, dosed 30 weeks, study length 95 weeks",302 mg/kg/day
same,TD50,"rat, strain Fischer 344, males, in drinking water, site: liver, lesion: hepatocellular carcinoma, dosed 30 weeks, study length 95 weeks",18.2 mg/kg/day
same,TD50,"rat, strain Fischer 344, males, in drinking water, site: liver, lesion: neoplastic nodule, dosed 30 weeks, study length 95 weeks",664 mg/kg/day
same,TD50,"rat, strain Fischer 344, males, in drinking water, site: liver, lesion: several types, types named in the paper, dosed 30 weeks, study length 95 weeks",11.5 mg/kg/day
CCN(CC)C(=S)[S-].CCN(CC)C(=S)[S-].[Cd+2],TD50,[1],47.5 mg/kg/day (inactive)
same,carcinogen call,"mouse, strain B6AKF1, females, oral dosing, site: liver, lesion: hepatoma, dosed 76 weeks, study length 76 weeks",negative (inactive)
same,carcinogen call,[2],negative (inactive)
same,carcinogen call,[3],negative (inactive)
same,carcinogen call,[4],negative (inactive)
same,carcinogen call,"mouse, strain B6AKF1, males, oral dosing, site: lung, lesion: adenoma, dosed 76 weeks, study length 76 weeks",negative (inactive)
same,TD50,[5],18 mg/kg/day (inactive)
same,carcinogen call,"mouse, strain B6C3F1, females, oral dosing, site: liver, lesion: hepatoma, dosed 76 weeks, study length 76 weeks",negative (inactive)
same,TD50,[6],57.4 mg/kg/day (inactive)
same,TD50,[7],6.2 mg/kg/day (inactive)
same,TD50,[8],16.7 mg/kg/day (inactive)
same,TD50,[9],25.9 mg/kg/day (inactive)
